Laboratory results from PubChem BioAssay (NCI).
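Where inhibition never reached the appropriate level, the endpoint shown equals the highest concentration tested. Otherwise, values were interpolated linearly from a five-concentration, 48-hour dose response in 96-well plates. The concentration for 50% growth inhibition is given as GI50. TGI is the concentration that stops growth completely.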

How the values were obtained:
Assay in all cases: DTP human tumour cell line panel, 48 h
[1] = system: SNB-75 CNS
[2] = system: NCI-H522 lung
[3] = system: HCC-2998 colon
[4] = system: IGROV1 ovarian
[5] = system: SF-268 CNS
[6] = system: UACC-62 melanoma
[7] = system: ACHN renal
[8] = system: SF-295 CNS
[9] = system: HT29 colon
[10] = system: HCT-15 colon
[11] = system: BT-549 breast
[12] = system: A498 renal
[13] = system: PC-3 prostate
[14] = system: 786-0 renal
[15] = system: MDA-MB-231 breast
[16] = system: HS 578T breast
[17] = system: RXF 393 renal
[18] = system: A549 NSCLC
[19] = system: HCT-116 colon
[20] = system: K-562 leukemia
[21] = system: HL-60(TB) leukemia
[22] = system: M14 melanoma
[23] = system: EKVX NSCLC
[24] = system: CAKI-1 renal
[25] = system: OVCAR-3 ovarian
[26] = system: OVCAR-4 ovarian
[27] = system: TK-10 renal
[28] = system: COLO 205 colon
[29] = system: SR leukemia
[30] = system: MDA-MB-468 breast

Structure (SMILES): CCCn1c(=O)c2[nH]c(-c3ccc(OCc4nc5ccc(F)cc5[nH]4)cc3)nc2n(CCC)c1=O
- TGI [1]: 20.2 µM
- GI50 [2]: 8.29 µM
- TGI [2]: > 100 µM
- GI50 [3]: > 100 µM
- TGI [3]: > 100 µM
- GI50 [4]: 16.5 µM
- TGI [4]: > 100 µM
- GI50 [5]: 25 µM
- TGI [5]: > 100 µM
- GI50 [6]: 12.3 µM
- TGI [6]: > 100 µM
- GI50 [7]: 14.9 µM
- TGI [7]: 50.1 µM
- GI50 [8]: 4.64 µM
- TGI [8]: 65.6 µM
- GI50 [9]: 26.9 µM
- TGI [9]: > 100 µM
- GI50 [10]: 30 µM
- TGI [10]: > 100 µM
- GI50 [11]: 25 µM
- TGI [11]: > 100 µM
- GI50 [12]: 3.36 µM
- TGI [12]: 21.3 µM
- GI50 [13]: 5.96 µM
- TGI [13]: > 100 µM
- GI50 [14]: 16.2 µM
- TGI [14]: > 100 µM
- GI50 [15]: 15.7 µM
- TGI [15]: 39.3 µM
- GI50 [16]: 4.1 µM
- TGI [16]: > 100 µM
- GI50 [17]: 2.76 µM
- TGI [17]: 11.3 µM
- GI50 [18]: 15.5 µM
- TGI [18]: > 100 µM
- GI50 [19]: 22.4 µM
- TGI [19]: > 100 µM
- GI50 [20]: 8.81 µM
- TGI [20]: > 100 µM
- GI50 [21]: > 100 µM
- TGI [21]: > 100 µM
- GI50 [22]: 52 µM
- TGI [22]: > 100 µM
- GI50 [23]: 30.3 µM
- TGI [23]: > 100 µM
- GI50 [24]: 15.9 µM
- TGI [24]: 62.4 µM
- GI50 [25]: 15.1 µM
- TGI [25]: 67 µM
- GI50 [26]: 4.24 µM
- TGI [26]: > 100 µM
- GI50 [27]: 24.4 µM
- TGI [27]: > 100 µM
- GI50 [28]: 99.1 µM
- TGI [28]: > 100 µM
- GI50 [29]: 22.3 µM
- TGI [29]: > 100 µM
- GI50 [30]: 4.75 µM
- TGI [30]: 40.9 µM
